Measured values: the supplement of paper PMC11061612

Legend:
Test in all cases: Bliss excess, mean over the matrix (fraction); higher = more synergy
[1] = test system: A3-KAW (B-Cell Non-Hodgkin's Lymphoma)
Procedure, shortened: (§1)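 Cell lines in DMEM/F12 or RPMI with 10% FBS were plated in 1536-well plates, held 24 hours at 37°C, 5% CO2, then given two-drug dose matrices for 72 hours (DMSO typically 0.2%). Viability was read by CellTiter-Glo 2.0 luminescence and scaled as inhibition from 0 (vehicle wells) to 1 (blank wells). Combination Emax is the second-highest inhibition in the matrix; Bliss excess is observed combination effect minus expected EA + EB − EA·EB, EA and EB being single-agent effects.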

A498 (Kidney Carcinoma) = test system: A498 (Kidney Carcinoma)
Procedure, shortened: as §1

ARH-77 (Non-Cancerous) = test system: ARH-77 (Non-Cancerous)
Procedure, shortened: as §1

[2] = test system: CAPAN-2 (Pancreatic Carcinoma)
Procedure, shortened: as §1

[3] = test system: COLO-824 (Breast Carcinoma)
Procedure, shortened: as §1

[4] = test system: COR-L311 (Small Cell Lung Carcinoma)
Procedure, shortened: as §1

GI-ME-N (Neuroblastoma) = test system: GI-ME-N (Neuroblastoma)
Procedure, shortened: as §1

[5] = test system: HCC1954 (Breast Carcinoma)
Procedure, shortened: as §1

IGR-37 (Melanoma) = test system: IGR-37 (Melanoma)
Procedure, shortened: as §1

[6] = test system: JSC-1 (B-Cell Non-Hodgkin's Lymphoma)
Procedure, shortened: as §1

LN-405 (Glioblastoma) = test system: LN-405 (Glioblastoma)
Procedure, shortened: as §1

[7] = test system: NCI-H1581 (Non-Small Cell Lung Carcinoma)
Procedure, shortened: as §1

[8] = test system: NCI-H1650 (Lung Adenocarcinoma)
Procedure, shortened: as §1

[9] = test system: NCI-H1666 (Lung Adenocarcinoma)
Procedure, shortened: as §1

[10] = test system: NCI-H64 (Small Cell Lung Carcinoma)
Procedure, shortened: as §1

NY (Osteosarcoma) = test system: NY (Osteosarcoma)
Procedure, shortened: as §1

[11] = test system: PANC-10-05 (Pancreatic Carcinoma)
Procedure, shortened: as §1

[12] = test system: SK-MES-1 (Squamous Cell Lung Carcinoma)
Procedure, shortened: as §1

[13] = test system: TT (Thyroid Gland Carcinoma)
Procedure, shortened: as §1

[14] = test system: VCaP (Prostate Carcinoma)
Procedure, shortened: as §1

SMILES | Bliss excess [1] | Bliss excess (A498 (Kidney Carcinoma)) | Bliss excess (ARH-77 (Non-Cancerous)) | Bliss excess [2] | Bliss excess [3] | Bliss excess [4] | Bliss excess (GI-ME-N (Neuroblastoma)) | Bliss excess [5] | Bliss excess (IGR-37 (Melanoma)) | Bliss excess [6] | Bliss excess (LN-405 (Glioblastoma)) | Bliss excess [7] | Bliss excess [8] | Bliss excess [9] | Bliss excess [10] | Bliss excess (NY (Osteosarcoma)) | Bliss excess [11] | Bliss excess [12] | Bliss excess [13] | Bliss excess [14]
CC(=O)Nc1cccc(-n2c(=O)n(C3CC3)c(=O)c3c(Nc4ccc(I)cc4F)n(C)c(=O)c(C)c32)c1 [Trametinib] + Cc1nc(-c2cn3c(n2)-c2ccc(-c4cnn(C(C)(C)C(N)=O)c4)cc2OCC3)n(C(C)C)n1 [Taselisib] (first compound max 1 µM, 7x7, partner max 10 µM) | 0.173 | 0.0344 | 0.0785 | 0.117 | 0.21 | 0.0018 | 0.0954 | 0.0455 | 0.0677 | 0.218 | 0.0342 | 0.243 | 0.0443 | 0.0857 | 0.0284 | 0.0847 | 0.0968 | 0.198 | 0.0288 | 0.0444
NC1(C(=O)N[C@@H](CCO)c2ccc(Cl)cc2)CCN(c2ncnc3[nH]ccc23)CC1 [Capivasertib] + C[C@@H]1COCCN1C2=NC(=NC(=C2)C3(CC3)[S@](=N)(=O)C)C4=C5C=CNC5=NC=C4 [AZD6738] (first compound max 10 µM, 7x7, partner max 10 µM) | -0.0165 | 0.0375 | -0.0375 | -0.0194 | -0.0655 | -0.0213 | -0.0269 | 0.0105 | 0.0138 | 0.0036 | -0.0413 | -0.0363 | -0.0754 | -0.0332 | -0.0591 | -0.0287 | -0.0946 | -0.058 | -0.0378 | -0.0179
COc1cc2ncnc(Nc3ccc(F)c(Cl)c3)c2cc1OCCCN1CCOCC1 [Gefitinib] + CC(C)n1c(=O)n(C)c2cnc3cc(F)c(-c4ccc(OCCCN5CCCCC5)nc4)cc3c21 [AZD1390] (first compound max 10 µM, 7x7, partner max 0.3 µM) | -0.0098 | -0.11 | -0.0785 | -0.0652 | -0.0795 | -0.0545 | -0.0827 | -0.0366 | -0.0865 | -0.0911 | -0.076 | -0.0457 | -0.0477 | -0.0064 | -0.022 | -0.0355 | -0.0835 | -0.0755 | -0.0526 | -0.0429
Cc1cc2ncnn2cc1Nc1ncc2c(n1)n(C1CCOCC1)c(=O)n2C [AZD7648] + C=CCn1c(=O)c2cnc(Nc3ccc(N4CCN(C)CC4)cc3)nc2n1-c1cccc(C(C)(C)O)n1 [AZD1775] (first compound max 10 µM, partner max 1 µM) | 0.0521 | 0.0207 | -0.0575 | 0.0132 | -0.0448 | -0.119 | 0.0213 | 0.0065 | -0.0007 | -0.0166 | -0.0402 | -0.0334 | 0.0097 | 0.0305 | -0.0585 | -0.0547 | -0.0429 | 0.0167 | -0.0215 | -0.0497
COc1cccc(OCCCN)c1-c1cc(Nc2cnc(C#N)cn2)n[nH]1 [Prexasertib] + C=CCn1c(=O)c2cnc(Nc3ccc(N4CCN(C)CC4)cc3)nc2n1-c1cccc(C(C)(C)O)n1 [AZD1775] (first compound max 1 µM, partner max 1 µM) | 0.0424 | -0.0716 | 0.0493 | -0.0231 | 0.0432 | 0.0559 | 0.0161 | 0.114 | 0.0322 | 0.0682 | 0.0469 | 0.155 | 0.0005 | -0.0629 | 0.0127 | -0.008 | -0.0342 | -0.0425 | -0.103 | 0.022
Cc1cc2ncnn2cc1Nc1ncc2c(n1)n(C1CCOCC1)c(=O)n2C [AZD7648] + CCN(CCO)CCCOc1ccc2c(Nc3cc(CC(=O)Nc4cccc(F)c4)[nH]n3)ncnc2c1 [AZD2811] (first compound max 10 µM, 7x7, partner max 1 µM) | 0.0762 | -0.0049 | 0.0348 | -0.0525 | 0.0116 | -0.0806 | 0.0032 | 0.0561 | 0.0315 | 0.0813 | -0.0206 | 0.0122 | 0.0142 | -0.0087 | 0.0392 | 0.0076 | -0.0341 | -0.0011 | -0.0266 | 0.0023
CC1(C)CCC(CN2CCN(c3ccc(C(=O)NS(=O)(=O)c4ccc(NCC5CCOCC5)c([N+](=O)[O-])c4)c(Oc4cnc5[nH]ccc5c4)c3)CC2)=C(c2ccc(Cl)cc2)C1 [Venetoclax] + Cc1cc2ncnn2cc1Nc1ncc2c(n1)n(C1CCOCC1)c(=O)n2C [AZD7648] (first compound max 1 µM, 7x7, partner max 10 µM) | 0.0185 | -0.0755 | 0.0245 | -0.0083 | 0.0222 | 0.0472 | -0.0235 | -0.0034 | 0.0149 | -0.0103 | 0.015 | 0.0081 | -0.0446 | -0.0821 | -0.056 | 0.0011 | -0.0721 | -0.0002 | -0.0161 | -0.0248
Cc1c2c(nn1C)CSCc1cc(n(C)n1)CSc1cc(c3ccccc3c1)OCCCc1c(C(=O)O)n(C)c3c-2c(Cl)ccc13 [AZD5991] + Cc1cc2ncnn2cc1Nc1ncc2c(n1)n(C1CCOCC1)c(=O)n2C [AZD7648] (first compound max 1 µM, 7x7, partner max 10 µM) | -0.0101 | -0.0249 | -0.024 | 0.0141 | -0.0187 | 0.0101 | -0.0863 | -0.0095 | 0.0039 | -0.0499 | -0.0439 | -0.0026 | -0.0408 | -0.0666 | -0.0186 | -0.0319 | -0.0758 | -0.0471 | -0.0112 | -0.0067
COc1cccc(OCCCN)c1-c1cc(Nc2cnc(C#N)cn2)n[nH]1 [Prexasertib] + O=C(c1cc(Cc2n[nH]c(=O)c3ccccc23)ccc1F)N1CCN(C(=O)C2CC2)CC1 [Olaparib] (first compound max 1 µM, 7x7, partner max 10 µM) | -0.0146 | -0.0622 | -0.0485 | -0.169 | -0.0481 | -0.101 | -0.0649 | -0.0566 | -0.0327 | -0.0179 | 0.0837 | 0.0257 | -0.0152 | -0.0096 | -0.0438 | -0.0128 | -0.0424 | -0.0174 | -0.141 | -0.041
COc1nnc2ccc(N3CCC(c4ccc(OCCN5CCN(C)C(=O)[C@H]5C)cc4)CC3)nn12 [AZD5153] + C[C@@H]1COCCN1C2=NC(=NC(=C2)C3(CC3)[S@](=N)(=O)C)C4=C5C=CNC5=NC=C4 [AZD6738] (first compound max 1 µM, 7x7, partner max 10 µM) | -0.006 | -0.0563 | -0.0293 | 0.0047 | 0.0541 | -0.0501 | 0.0858 | 0.0323 | -0.0149 | -0.067 | -0.0235 | 0.0013 | 0.0238 | -0.0271 | 0.0357 | -0.0188 | -0.0928 | 0.0093 | 0.0167 | -0.0521
CC1(C)CCC(CN2CCN(c3ccc(C(=O)NS(=O)(=O)c4ccc(NCC5CCOCC5)c([N+](=O)[O-])c4)c(Oc4cnc5[nH]ccc5c4)c3)CC2)=C(c2ccc(Cl)cc2)C1 [Venetoclax] + C[C@@H](Nc1cc(F)cc(F)c1)c1cc(C(=O)N(C)C)cc2c(=O)cc(N3CCOCC3)oc12 [AZD8186] (first compound max 1 µM, 7x7, partner max 3 µM) | -0.0047 | -0.043 | 0.0649 | -0.0167 | 0.139 | 0.0257 | -0.06 | -0.0245 | -0.0335 | -0.0218 | -0.0013 | 0.0121 | -0.019 | -0.0705 | 0.0288 | 0.0226 | -0.0542 | 0.0051 | -0.0467 | -0.0242
CN(CCO)CC[C@H](CSc1ccccc1)Nc1ccc(S(=O)(=O)NC(=O)c2ccc(N3CCC([C@@H](O)c4ccccc4-c4ccc(Cl)cc4)CC3)cc2)cc1S(=O)(=O)C(F)(F)F [AZD4320] + C[C@@H]1COCCN1C2=NC(=NC(=C2)C3(CC3)[S@](=N)(=O)C)C4=C5C=CNC5=NC=C4 [AZD6738] (first compound max 1 µM, 7x7, partner max 10 µM) | -0.0229 | -0.157 | -0.0049 | -0.0461 | -0.0365 | -0.0005 | -0.0403 | 0.0289 | 0.0151 | -0.0276 | 0.0063 | -0.0837 | 0.0045 | -0.0645 | -0.0404 | 0.0125 | -0.0476 | 0.0228 | -0.033 | -0.0287
